Assay results reported in patent publication US20220211594A1, “TOPICAL COMPOSITIONS” (DSM IP ASSETS B.V., priority 2019, published 2022).

Columns and labels:
[1] = system: C. albicans; assay: Preservation challenge test of inoculated O/W emulsion (ISO 11930), C. albicans; type: cell-based, Candida albicans; conditions: PTT: 0.4 wt.-%, HG & EHG: 0.6 wt.-%
Method: (§1) The evaluation of the preservation of a cosmetic formulation is based on inoculation of the formulation as outlined in table 1 with calibrated inocula (prepared from relevant strains of micro-organisms). Therefore, to each formulation 0.2 ml of calibrated inoculum is added to obtain between 1×10^4 cfu/ml and 1×10^7 cfu/ml or g for bacteria, and between 1×10^2 cfu/ml and 1×10^6 cfu/ml or g for C. albicans and A. brasiliensis in the formulation (final concentration), which is mixed thoroughly into the formulation to ensure a homogeneous distribution of the inoculum. Then the respective containers containing the inoculated formulations are stored @ 22.5±2.5° C. At each specified sampling interval (initial (T0), 7 days (T7) and 28 days (T28)) 1 g of the inoculated formulation is taken and a dilution prepared to perform the enumeration of surviving micro-organisms. Then, for each time and each strain/strain mixture, the average log value is calculated which is represented in tables 2-6. (Procedure: see ISO 11930, chapter 5.2.-5.6.3.4. (page 3-13))

[2] = system: A. brasiliensis; assay: Preservation challenge test of inoculated O/W emulsion (ISO 11930), A. brasiliensis; type: cell-based, Aspergillus brasiliensis
Method: as §1

[3] = system: Bacterial cocktail (E. Coli, P. aeruginosa, S. aureus); assay: Preservation challenge test of inoculated O/W emulsion (ISO 11930), bacterial cocktail; type: cell-based; conditions: PTT: 0.3 wt -%, HG & EHG: 0.4 wt.-%
Method: as §1

[4] = PTT: 0.1 wt.-%, HG & EHG: 0.9 wt.-%, time 0 days
[5] = PTT: 0.1 wt.-%, HG & EHG: 0.9 wt.-%, time 7 days
[6] = PTT: 0.1 wt.-%, HG & EHG: 0.9 wt.-%, time 28 days
[7] = PTT: 0.3 wt.-%, HG & EHG: 0.4 wt.-%, time 0 days
[8] = PTT: 0.3 wt.-%, HG & EHG: 0.4 wt.-%, time 7 days
[9] = PTT: 0.3 wt.-%, HG & EHG: 0.4 wt.-%, time 28 days
[10] = PTT: 0.4 wt.-%, HG & EHG: 0.6 wt.-%, time 0 days
[11] = PTT: 0.4 wt.-%, HG & EHG: 0.6 wt.-%, time 7 days
[12] = PTT: 0.4 wt.-%, HG & EHG: 0.6 wt.-%, time 28 days

SMILES | Average log [cfu/ml] ([1]; time 0 days) | Average log [cfu/ml] ([1]; time 7 days) | Average log [cfu/ml] ([1]; time 28 days) | Average log [cfu/ml] [2, 4] | Average log [cfu/ml] [2, 5] | Average log [cfu/ml] [2, 6] | Average log [cfu/ml] [2, 7] | Average log [cfu/ml] [2, 8] | Average log [cfu/ml] [2, 9] | Average log [cfu/ml] [2, 10] | Average log [cfu/ml] [2, 11] | Average log [cfu/ml] [2, 12] | Average log [cfu/ml] ([3]; time 0 days) | Average log [cfu/ml] ([3]; time 7 days) | Average log [cfu/ml] ([3]; time 28 days)
CCCCC(CC)COCC(O)CO (stereo not drawn) [EHG, Ethylhexyl glycerine] | 3.2 log [cfu/ml] | 6.1 log [cfu/ml] | 6.0 log [cfu/ml] | 4.6 log [cfu/ml] | 4.2 log [cfu/ml] | 4.5 log [cfu/ml] | 4.6 log [cfu/ml] | 4.6 log [cfu/ml] | 4.6 log [cfu/ml] | 4.6 log [cfu/ml] | 4.4 log [cfu/ml] | 4.6 log [cfu/ml] | 5.3 log [cfu/ml] | 7.0 log [cfu/ml] | 6.5 log [cfu/ml]
CCCCCCOCC(O)CO (stereo not drawn) [HG, 3-(hexyloxy)-1,2-propanediol] | 4.3 log [cfu/ml] | 3.6 log [cfu/ml] | 3.1 log [cfu/ml] | 4.2 log [cfu/ml] | 1.3 log [cfu/ml] | 0 log [cfu/ml] | 4.7 log [cfu/ml] | 3.7 log [cfu/ml] | 3.5 log [cfu/ml] | 4.3 log [cfu/ml] | 3.6 log [cfu/ml] | 3.1 log [cfu/ml] | 4.9 log [cfu/ml] | 5.7 log [cfu/ml] | 5.6 log [cfu/ml]
CC(C)CCCC(C)CCCC(C)CCCC(C)(O)C(O)CO (stereo not drawn) [PTT, 3,7,11,15-tetramethyl-hexadecane-1,2,3-triol] | 3.0 log [cfu/ml] | 6.8 log [cfu/ml] | 7.1 log [cfu/ml] | 2.1 log [cfu/ml] | 3.6 log [cfu/ml] | 4.4 log [cfu/ml] | 6.3 log [cfu/ml] | 5.7 log [cfu/ml] | 5.8 log [cfu/ml] | 1.7 log [cfu/ml] | 3.5 log [cfu/ml] | 4.5 log [cfu/ml] | 6.5 log [cfu/ml] | 2 log [cfu/ml] | 2 log [cfu/ml]
